Measured values as given in US6368413B1, “Process for preparing improved sugar product” (Praxair Technology, Inc., priority 2000, dated 2002).

System: Aerobic Bacteria
Assay: Disinfection of sugar liquor by ozonation, aerobic bacteria count
Protocol: In the laboratory, tests were performed on refinery liquors at Brix 66 to 70 and color between 60 and 300 Icumsa units (the color of sugar liquors is expressed in Icumsa units following the specific and standardized methodology well known in the sugar industry). A laboratory model generator was used to pass ozone into a batch reactor. The ozone generator was operating on a pure feed gas and it produced 40 g/h of ozone at 5% concentration. Two mixer reactors were used, the first one operating at 800 rpm under a pressure of 60 psig with 2L capacity and the second one operating at atmospheric pressure and 1200 rpm with 10 L capacity. A series of tests were carried out with different types of liquors and the treated sugar was characterized in terms of color, turbidity, pH, saccharose degradation, toxicity and disinfection. The following examples present results of experiments performed in different ozonation conditions with different types of liquors. A 184 Icumsa color units liquor was treated with 200 mg/L of ozone during 8 min using the pressurized reactor. A low color liquor, 64 Icumsa units was treated in the atmospheric pressure reactor under two different ozonation conditions. The following table presents the results of microbiological analyses.

## O=[O+][O-] [ozone]
Example 6: 200 mg/L ozone, 8 min
  reduction of number of total bacteria after ozonation: 95%
Example 7: 200 mg/l ozone
  reduction of bacteria: 89%
Example 7: 400 mg/L of ozone
  disinfection: complete disinfection
